Laboratory results from article PMC7918738, “Microtubule Destabilizing Sulfonamides as an Alternative to Taxane-Based Chemotherapy” (International Journal of Molecular Sciences, 2021).
In brackets after ≈: the same amount, converted by molar mass. Several values for one entry are separate records, joined by “and”; a condition that tells them apart may be missing. Identical values can stand only once. Like-named read-outs stand apart in the source and are kept apart here.

Assays:
[1] = test system: HT-29 (colon adenocarcinoma); assay: Antiproliferative activity against CA-4-resistant HT-29 with or without verapamil (sensitivity to MDR pumps, XTT); format: cell-based, human; settings: for IC50: Homo sapiens, read-out: Antiproliferative Activity IC50 HT-29; for Difference between pairs of HT-29 IC50 values in the presence or absence of verapamil: 10 µM verapamil, up to two-fold change counted as not significant
Excerpt: Detecting changes in drug potency when inhibiting MDR-mediated efflux reflect that these transporters reduce the intracellular drug concentration. HT-29 has been reported to express moderate levels of MDR1, accounting for a resistant phenotype. A comparison of the antiproliferative IC50 values of each MDS in the presence or absence of verapamil provides an estimate of the susceptibility of each compound to efflux pumps.
MCF7 (human breast carcinoma), SKOV-3 (human ovarian carcinoma), OVCAR-3 (human ovarian carcinoma), OVCAR-8 (human ovarian carcinoma), and HeLa (human cervical carcinoma) cell lines were cultured in Dulbecco’s Modified Eagle’s Medium (DMEM) (Gibco, Thermo Fischer Scientific) containing 10% (v/v) heat-inactivated fetal bovine serum (HIFBS) (Lonza-Cambrex, Karlskoga, Sweden), 2 mM L-glutamine (Lonza-Cambrex, Karlskoga, Sweden), 100 μg/mL streptomycin, and 100 IU/mL penicillin (Lonza-Cambrex) at 37 °C in humidified 95% air and 5% CO2. HT-29 (human colon carcinoma), IGROV-1 (human ovarian carcinoma), and A2780 (human ovarian carcinoma) cell lines were cultured in RPMI 1640 medium (Gibco, Thermo Fischer Scientific) supplemented with 10% HIFBS, 100 μg/mL streptomycin, and 100 IU/mL penicillin at 37 °C in humidified 95% air and 5% CO2 atmosphere. The presence of mycoplasma was routinely checked with MycoAlert kit (Lonza-Cambrex) and only mycoplasma-free cells were used in the experiments. Ovarian tumor cell lines were originally acquired from Dr Atanasio Pandiella from Centro de Investigación del Cáncer (CIC), Salamanca, Spain. HeLa, HT-29 and MCF7 tumor cell lines were provided by Dr Faustino Mollinedo from Centro de Investigaciones Biológicas Margarita Salas, Madrid, Spain.
MCF7, HeLa, and HT-29 cell proliferation, when treated with the corresponding compounds, were determined using the XTT (sodium 3’-[1(phenylaminocarbonyl)-3,4-tetrazolium]-bis(4-methoxy-6-nitro)-benzenesulfonic acid hydrate) cell proliferation kit (Roche Molecular Biochemicals, Mannheim, Germany). A freshly prepared mixture of XTT labeling reagent with 0.02% (v/v) PMS (N-methyl-dibenzopyrazine methyl sulfate) electron coupling reagent was added to cells (50 µL/well in 96-well plates, total volume of 160 µL/well). Cells were incubated under standard culture conditions for 4 h (MCF7 and HeLa) or 6 h (HT-29). The absorbance of the formazan product generated was measured at 450 nm using a multi-well plate reader. SKOV-3, OVCAR-3, OVCAR-8, IGROV-1, A-2780 cell proliferation, when treated with the corresponding compound, were determined using MTT (3-(4,5-dimethylthiazol-2-yl)-2,5-diphenyl-2H-tetrazolium bromide) (Sigma-Aldrich, St. Louis, MO, USA). MTT in Phosphate Buffer Saline (PBS) (5 mg/ml) was added to cells (110 µL/well in 24-well plates, total volume of 1110 µL/well). After 1 hour of incubation, the medium was aspirated, and formazan violet crystals were dissolved in dimethyl sulfoxide (DMSO) (500 µL/well). Absorbance was measured at 570 nm in a plate reader (Ultra Evolution, Tecan, Männedorf, Suiza). To determine cell viability, cells in exponential growth phase were seeded (100 µL/well in 96-well plates and 1000 µL/well in 24-well plates) with appropriate cell line concentration (1.5·10^4 cells/mL for MCF7 and HeLa, 3·10^4 cells/mL for HT-29, and 1·10^4 cells/mL for SKOV-3, OVCAR-3, OVCAR-8, IGROV-1, and A-2780) in complete RPMI 1640 or DMEM medium at 37°C and 5% CO2 atmosphere. After 24 h incubation, to allow cells to attach to the plates, all compounds were added at 1 µM concentration and the effect on the proliferation was evaluated 72 h post-treatment. […] Non-linear curves fitting the experimental data were carried out for each compound. Compounds were dissolved in DMSO and the final solvent concentrations never exceeded 0.5% (v/v). The control wells included […] with 0.5% (v/v) DMSO and the positive control. 10 µM verapamil was included as a control for the HT-29 cell line.

[2] = Aqueous solubility, saturation shake-flask method, UV absorbance; settings: phosphate buffer, pH 7, aqueous buffer, thermodynamic from solid
Method: UV absorbance at three maximum absorbance wavelengths of selected compounds was measured after 48 h shaking and subsequent microfiltration.
The aqueous solubility of the sulfonamides was determined using an approach based on the saturation shake-flask method. Tested compounds (1–2 mg) were stirred in pH 7.0 phosphate buffer (300 µL) for 48 h at room temperature. The resulting suspension was filtered over a 45 µm filter to discard insoluble residues, and the concentration in the supernatant was measured by UV absorbance. To determine the concentration, a scan between 270 and 400 nm was performed in a Helios-α UV-320 Spectrophotometer (Thermo-Spectronic, Thermo Fischer Scientific, Waltham, MA, USA) for each tested compound. Then, three maximum wavelengths of absorbance per compound were selected from the previous scan and calibration curves were performed at these three wavelengths. Solubility results are given as the average of the three measurements.

[3] = test system: SKOV3 cells; assay: Annexin V-FITC/PI cell death quantification in SKOV3; format: cell-based, human; settings: SKOV3, 72 h; 38 600 nM, 42 50 nM, 45 400 nM, paclitaxel 10 nM
Method: To determine whether the cytotoxic/antiproliferative effect of the MDS was due to apoptosis induction, cells were treated with variable concentrations of the drug for 72 h or 6 days, stained with Annexin V-FITC (AnV) and propidium iodide (PI), and analyzed by flow cytometry. Double negative cells (AnV^−/PI^−) were classified as live cells (L), cells positive for AnV and negative for PI (AnV^+/PI^−) were considered in Early Apoptosis (EA), cells negative for AnV and positive for PI (AnV^−/PI^+) were considered necrotic (N), and double-positive cells (AnV^+/PI^+) as Late Apoptosis (LA). In all cases, the compounds were used at the same concentrations previously used in cell cycle studies (Table 5).
MCF7, SKOV-3, and HeLa apoptotic cells were quantified using an Annexin V-FITC/PI apoptosis detection kit (Immunostep, Salamanca, Spain) according to the manufacturer’s guidelines. 1.5 mL/well of cells in the exponential growth phase at 2·10^4 cells/mL were seeded onto 12-well plates and left to attach overnight. After 24 h incubation, cells were treated with selected compounds. After 72 h (MCF7, SKOV-3, and HeLa) and 6 days (MCF7) post-treatment, attached and floating cells of treated and untreated wells were collected, centrifuged, resuspended in Annexin V binding buffer, and stained with Annexin V-FITC/PI. Cells were then incubated in darkness at room temperature for 15 min and a total of 30,000 cells were acquired and analyzed using the BD Accuri™ C6 Plus Flow Cytometer and Software (version 1.0.264.21, BD Biosciences, San José, CA, USA), respectively. Compounds were dissolved in DMSO and the final solvent concentration never exceeded 0.5% (v/v). Control wells included cells with 0.5% (v/v) DMSO.

[4] = HT-29, 72 h, XTT, without verapamil

| SMILES | IC50 [1, 4] [nM] | solubility at 48 h [2] [µg/mL] | other results |
| --- | --- | --- | --- |
| COc1cc(N(C)S(=O)(=O)c2ccc(N)cc2)cc(OC)c1OC [Compound 27] | > 1000 | 25 (≈ 70.9 µM) | – |
| COc1cc(NS(=O)(=O)c2ccc(N(C)C)cc2)cc(OC)c1OC [Compound 28] | 887 | 15 (≈ 40.9 µM) | – |
| CCN(c1cc(OC)c(OC)c(OC)c1)S(=O)(=O)c1ccc(N(C)C)cc1 [Compound 30] | 460 | 6 (≈ 15.2 µM) | – |
| COc1cc(N(C(C)=O)S(=O)(=O)c2ccc(N(C)C)cc2)cc(OC)c1OC [Compound 31] | 140 | 18 (≈ 44.1 µM) | – |
| COc1cc(N(CC#N)S(=O)(=O)c2ccc(N(C)C)cc2)cc(OC)c1OC [Compound 32] | 123 | 8 (≈ 19.7 µM) | – |
| CCOC(=O)CN(c1cc(OC)c(OC)c(OC)c1)S(=O)(=O)c1ccc(N(C)C)cc1 [Compound 33] | 863 | – | – |
| COc1cc(N(Cc2ccccc2)S(=O)(=O)c2ccc(N(C)C)cc2)cc(OC)c1OC [Compound 35a] | 165 | – | – |
| COc1cc(N(C(=O)OCc2ccccc2)S(=O)(=O)c2ccc(N(C)C)cc2)cc(OC)c1OC [Compound 35b] | 690 | – | – |
| COc1cc(NS(=O)(=O)c2ccc(NC=O)cc2)cc(OC)c1OC [Compound 36] | > 1000 | 27 (≈ 73.7 µM) | – |
| CNc1ccc(S(=O)(=O)N(C)c2cc(OC)c(OC)c(OC)c2)cc1 [Compound 38] | 59 | 16 (≈ 43.7 µM) | Difference between pairs of HT-29 IC50 values in the presence or absence of verapamil [1]: no significant differences; Annexin V-FITC/PI 72 h EA (early apoptosis) [3]: 31% and 30.5%; Annexin V-FITC/PI 72 h LA (late apoptosis) [3]: 5.4%; Annexin V-FITC/PI 72 h Live [3]: 62.3%; Annexin V-FITC/PI 72 h Necrosis [3]: 1.8% |
| COc1ccc(S(=O)(=O)Nc2cc(OC)c(OC)c(OC)c2)cc1[N+](=O)[O-] [Compound 40] | > 1000 | – | – |
| COc1ccc(S(=O)(=O)Nc2cc(OC)c(OC)c(OC)c2)cc1N [Compound 41] | 277 | 89 (≈ 242 µM) | – |
| COc1ccc(S(=O)(=O)N(C)c2cc(OC)c(OC)c(OC)c2)cc1N [Compound 42] | 81 | 108 (≈ 282 µM) | Difference between pairs of HT-29 IC50 values in the presence or absence of verapamil [1]: no significant differences; Annexin V-FITC/PI 72 h EA (early apoptosis) [3]: 12.2%; Annexin V-FITC/PI 72 h LA (late apoptosis) [3]: 2.0%; Annexin V-FITC/PI 72 h Live [3]: 85.1%; Annexin V-FITC/PI 72 h Necrosis [3]: 0.7% |
| CCN(c1cc(OC)c(OC)c(OC)c1)S(=O)(=O)c1ccc(OC)c(N)c1 [Compound 43] | 63 | 58 (≈ 146 µM) | – |
| COc1ccc(S(=O)(=O)N(Cc2ccccc2)c2cc(OC)c(OC)c(OC)c2)cc1N [Compound 45] | 300 | 14 (≈ 30.5 µM) | Difference between pairs of HT-29 IC50 values in the presence or absence of verapamil [1]: no significant differences; Annexin V-FITC/PI 72 h EA (early apoptosis) [3]: 23% and 23.4%; Annexin V-FITC/PI 72 h LA (late apoptosis) [3]: 2.6%; Annexin V-FITC/PI 72 h Live [3]: 72.7%; Annexin V-FITC/PI 72 h Necrosis [3]: 1.3% |
| CCOC(=O)CNc1cc(S(=O)(=O)N(C)c2cc(OC)c(OC)c(OC)c2)ccc1OC [Compound 46] | 113 | – | – |
| CCOC(=O)CNc1cc(S(=O)(=O)N(CC(=O)OCC)c2cc(OC)c(OC)c(OC)c2)ccc1OC [Compound 47] | > 1000 | – | – |
| CNc1cc(S(=O)(=O)N(C)c2cc(OC)c(OC)c(OC)c2)ccc1OC [Compound 48a] | > 1000 | – | – |
| COc1ccc(S(=O)(=O)N(C)c2cc(OC)c(OC)c(OC)c2)cc1N(C)C [Compound 48b] | – | – | IC50 ([1]; HT-29, 72 h): > 1000 nM |
